{"source": "patent US8497261B2", "about": "“3-aminocaprolactam compounds for treating inflammatory disorders” (Cambridge Enterprise Limited, priority 2004, dated 2013)", "key": {"[1]": {"tested_on": "chemokine-induced migration", "test": "Chemokine-induced migration in vitro (prior compounds)", "format": "cell-based", "details": "compared with (S)-3-(undec-10-enoyl)-aminoglutarimide"}, "[2]": {"test": "Stability in human serum", "format": "in vitro ADME", "details": "37° C.", "from_the_text": "As an approach to identifying such stable anlogs, various derivatives of (S)-3-(undec-10-enoyl)-aminoglutarimide have been tested for their stability in serum."}, "[3]": {"details": "cited from earlier work"}}, "data": [{"compound": "C=CCCCCCCCCC(=O)[C@@H]1CCCNC1=O", "note": "[(S)-3-(undec-10-enoyl)-tetrahydropyridin-2-one]", "values": [{"measurement": "potency compared with the parental molecule", "setting": "[1]", "value": "considerably reduced potency"}, {"measurement": "time completely stable in human serum", "setting": "[2]", "value": "at least 7 days"}]}, {"compound": "CCCCC[C@H]1CC[C@H](C(=O)N[C@H]2CCCNC(=O)C2)CC1", "note": "[Example 4, (S)-3-(trans-4′-pentylcyclohexane-1-carbonyl)amino-caprolactam]", "values": [{"measurement": "melting point", "value": "182 to 184", "unit": "°C"}]}, {"compound": "c(DCys-DG1n-DIle-DTrp-DLys-DG1n-DLys-DPro-DAsp-DLeu-DCys)-NH2 [NR583.14.3]", "values": [{"measurement": "half-life period of clearance from blood plasma", "setting": "[3]; after intravenous injection", "value": "less than 30 minutes"}, {"measurement": "oral bioavailability", "setting": "[3]; in vivo, po", "value": "not orally bioavailable"}]}]}
